Data: article PMC3657615 (Nature chemical biology, 2012)

Legend:
[1] = assay type: physicochemical
RSK1/2 [2] = assay: Cellular RSK1/2 occupancy after inhibitor washout; assay type: cell-based; conditions: MDA-MB-231 cells, 1 μM inhibitor
RSK1/2 [3] = assay: Cellular RSK1/2 occupancy assay using FMK-BODIPY; assay type: cell-based; conditions: MDA-MB-231 cells
[4] = test system: RSK2-CTD-mediated autophosphorylation of Ser386; assay: pS386 RSK inhibition in MDA-MB-231 cells; assay type: cell-based
[5] = Reaction with 10 mM glutathione; assay type: physicochemical

Row | SMILES | reaction with BME, stability or reversibility of the adduct [1] | time to reappearance of inhibitor-free RSK1/2 after washout (RSK1/2 [2]) | potency relative to CN-NHiPr in the cellular occupancy assay (RSK1/2 [3]) | potency relative to CN-NHiPr in the autophosphorylation assay [4] | t1/2 of reaction with 10 mM glutathione [5] [h]
1 | N#C/C=C/c1ccccc1 [Compound 2, cinnamonitrile] | stable thioether adducts | – | – | – | –
2 | Cc1ccc(-c2c(C(=O)CF)n(CCCO)c3ncnc(N)c23)cc1 [FMK] | – | at least 48 h | less potent than CN-NHiPr | less potent than CN-NHiPr | 16
